# Assay results reported in ChEMBL document CHEMBL5252615, “Synthesis, biological activity and mechanism of action of novel allosecurinine derivatives as potential antitumor agents” (Bioorg Med Chem, 2023).
# The source made the active and inactive calls. The calls are words filed in the database; no cut-off is given here.
# Tests used:
# KG-1 [1] = experiment: Induction of apoptosis in human KG-1 cells assessed as change in mitochondrial membrane potential after 48 hrs by JC-1 staining based flow cytometric analysis; assay type: functional, cell-based
# THP-1 [2] = experiment: Induction of apoptosis in human THP-1 cells assessed as accumulation of cells at sub-G1 phase at 2.5 uM after 48 hrs by PI staining based flow cytometric analysis; assay type: functional, cell-based
# NB-4 [3] = experiment: Induction of apoptosis in human NB4 cells assessed as necrotic cells at 2.5 uM after 48 hrs by Annexin-V-FITC/PI staining based flow cytometric analysis (reference value: 0.29%); assay type: functional
# K562 [4] = experiment: Induction of apoptosis in human K562 cells assessed as decrease in expression level of Bcl-2 measured after 48 hrs by Western blotting analysis; assay type: functional, cell-based; settings: dose 1-5 µM
# KG-1 [5] = experiment: Induction of reactive oxygen species production in human KG-1 cells at 1 to 5 uM measured after 48 hrs by DCFH-DA staining based flow cytometric analysis; assay type: functional, cell-based; settings: dose 1-5 µM
# THP-1 [6] = experiment: Induction of reactive oxygen species production in human THP-1 cells at 1 to 5 uM measured after 48 hrs by DCF fluorescence analysis; assay type: functional, cell-based; settings: dose 1-5 µM
# THP-1 [7] = experiment: Induction of apoptosis in human THP-1 cells assessed as necrotic cells at 2.5 uM after 48 hrs by Annexin-V-FITC/PI staining based flow cytometric analysis (reference value: 0.19%); assay type: functional
# KG-1 [8] = experiment: Induction of reactive oxygen species production in human KG-1 cells at 1 to 5 uM measured after 48 hrs by DCF fluorescence analysis; assay type: functional, cell-based; settings: dose 1-5 µM
# THP-1 [9] = experiment: Induction of apoptosis in human THP-1 cells assessed as late apoptotic cells at 2.5 uM after 48 hrs by Annexin-V-FITC/PI staining based flow cytometric analysis (reference value: 1.26%); assay type: functional
# THP-1 [10] = experiment: Induction of apoptosis in human THP-1 cells assessed as increase in expression level of p21 measured at 1 to 5 uM after 48 hrs by Western blotting analysis; assay type: functional, cell-based; settings: dose 1-5 µM
# KG-1 [11] = experiment: Induction of apoptosis in human KG-1 cells assessed as early apoptotic cells at 2.5 uM after 48 hrs by Annexin-V-FITC/PI staining based flow cytometric analysis (reference value: 0.70%); assay type: functional
# K562 [12] = experiment: Induction of apoptosis in human K562 cells assessed as decrease in expression level of XIAP measured at 1 to 5 uM after 48 hrs by Western blotting analysis; assay type: functional, cell-based; settings: dose 1-5 µM
# HL-60 [13] = experiment: Induction of apoptosis in human HL-60 cells assessed as late apoptotic cells at 2.5 uM after 48 hrs by Annexin-V-FITC/PI staining based flow cytometric analysis (reference value: 0.44%); assay type: functional
# NB-4 [14] = experiment: Antitumor activity against human NB4 cells assessed as reduction in cell viability incubated for 72 hrs; assay type: functional, cell-based; settings: NB-4, 72 h
# U-937 [15] = experiment: Induction of reactive oxygen species production in human U-937 cells at 1 to 5 uM measured after 48 hrs by DCFH-DA staining based flow cytometric analysis; assay type: functional, cell-based; settings: dose 1-5 µM
# HL-60 [16] = experiment: Induction of differentiation of human HL-60 cells assessed as increase in CD11b expression at 0.5 uM measured after 72 hrs by flow cytometric analysis; assay type: functional, cell-based
# NB-4 [17] = experiment: Induction of apoptosis in human NB4 cells assessed as early apoptotic cells at 2.5 uM after 48 hrs by Annexin-V-FITC/PI staining based flow cytometric analysis (reference value: 0.86%); assay type: functional
# THP-1 [18] = experiment: Induction of apoptosis in human THP-1 cells assessed as decrease in expression level of Bcl-2 measured after 48 hrs by Western blotting analysis; assay type: functional, cell-based; settings: dose 1-5 µM
# K562 [19] = experiment: Induction of apoptosis in human K562 cells assessed as late apoptotic cells at 2.5 uM after 48 hrs by Annexin-V-FITC/PI staining based flow cytometric analysis (reference value: 0.21%); assay type: functional
# THP-1 [20] = experiment: Induction of apoptosis in human THP-1 cells assessed as change in mitochondrial membrane potential after 48 hrs by JC-1 staining based flow cytometric analysis; assay type: functional, cell-based
# U-937 [21] = experiment: Induction of apoptosis in human U-937 cells assessed as late apoptotic cells at 2.5 uM after 48 hrs by Annexin-V-FITC/PI staining based flow cytometric analysis (reference value: 0.94%); assay type: functional
# U-937 [22] = experiment: Induction of apoptosis in human U-937 cells assessed as accumulation of cells at sub-G1 phase at 2.5 uM after 48 hrs by PI staining based flow cytometric analysis; assay type: functional, cell-based
# K562 [23] = experiment: Induction of apoptosis in human K562 cells assessed as early apoptotic cells at 2.5 uM after 48 hrs by Annexin-V-FITC/PI staining based flow cytometric analysis (reference value: 1.26%); assay type: functional
# SU-DHL-2 = experiment: Antitumor activity against human SUDHL2 cells assessed as reduction in cell viability incubated for 72 hrs; assay type: functional, cell-based; settings: SU-DHL-2, 72 h
# THP-1 [24] = experiment: Induction of reactive oxygen species production in human THP-1 cells at 1 to 5 uM measured after 48 hrs by DCFH-DA staining based flow cytometric analysis; assay type: functional, cell-based; settings: dose 1-5 µM
# K562 [25] = experiment: Antitumor activity against human K562 cells assessed as reduction in cell viability incubated for 72 hrs; assay type: functional, cell-based; settings: K562, 72 h
# HL-60 [26] = experiment: Induction of apoptosis in human HL-60 cells assessed as viable cells at 2.5 uM after 48 hrs by Annexin-V-FITC/PI staining based flow cytometric analysis (reference value: 96.05%); assay type: functional; settings: read-out: Activity
# KG-1 [27] = experiment: Induction of apoptosis in human KG-1 cells assessed as decrease in expression level of YAP1 measured at 1 to 5 uM after 48 hrs by Western blotting analysis; assay type: functional, cell-based; settings: dose 1-5 µM
# THP-1 [28] = experiment: Induction of apoptosis in human THP-1 cells assessed as decrease in expression level of PARP measured at 1 to 5 uM after 48 hrs by Western blotting analysis; assay type: functional, cell-based; settings: dose 1-5 µM
# NB-4 [29] = experiment: Induction of differentiation of human NB4 cells assessed as increase in CD11b expression at 0.5 uM measured after 72 hrs by flow cytometric analysis; assay type: functional, cell-based
# U-937 [30] = experiment: Induction of apoptosis in human U-937 cells assessed as early apoptotic cells at 2.5 uM after 48 hrs by Annexin-V-FITC/PI staining based flow cytometric analysis (reference value: 2.87%); assay type: functional
# U-937 [31] = experiment: Induction of apoptosis in human U-937 cells assessed as decrease in expression level of PARP measured at 1 to 5 uM after 48 hrs by Western blotting analysis; assay type: functional, cell-based; settings: dose 1-5 µM
# HL-60 [32] = experiment: Antitumor activity against human HL-60 cells assessed as reduction in cell viability incubated for 72 hrs; assay type: functional, cell-based; settings: HL-60, 72 h
# THP-1 [33] = experiment: Induction of differentiation of human THP1 cells assessed as increase in CD11b expression at 0.5 uM measured after 72 hrs by flow cytometric analysis; assay type: functional, cell-based
# KG-1 [34] = experiment: Induction of apoptosis in human KG-1 cells assessed as decrease in expression level of XIAP measured at 1 to 5 uM after 48 hrs by Western blotting analysis; assay type: functional, cell-based; settings: dose 1-5 µM
# THP-1 [35] = experiment: Antitumor activity against human THP-1 cells assessed as reduction in cell viability incubated for 72 hrs; assay type: functional, cell-based; settings: THP-1, 72 h
# K562 [36] = experiment: Induction of apoptosis in human K562 cells assessed as viable cells at 2.5 uM after 48 hrs by Annexin-V-FITC/PI staining based flow cytometric analysis (reference value: 97.34%); assay type: functional; settings: read-out: Activity
# U-937 [37] = experiment: Induction of differentiation of human U-937 cells assessed as increase in CD11b expression at 0.5 uM measured after 72 hrs by flow cytometric analysis; assay type: functional, cell-based
smiles,measurement,setting,value
O=C1O[C@@]23C[C@@H](C=CC2=C1C(O)c1ccc([N+](=O)[O-])cc1)N1CCCC[C@H]13 (stereo partly drawn),Activity,KG-1 [1],Active
same,Activity,THP-1 [2],Active
same,Activity,NB-4 [3],3.4%
same,Activity,K562 [4],Dose-Dependent Effect
same,Activity,KG-1 [5],Active
same,Activity,THP-1 [6],Active
same,Activity,THP-1 [7],1.76%
same,Activity,KG-1 [8],Active
same,Activity,THP-1 [9],11.77%
same,Activity,THP-1 [10],Active
same,Activity,KG-1 [11],0.33%
same,Activity,K562 [12],Active
same,Activity,HL-60 [13],6.43%
same,IC50,NB-4 [14],1.88 µM
same,Activity,U-937 [15],Active
same,Activity,HL-60 [16],Active
same,Activity,NB-4 [17],23.15%
same,Activity,THP-1 [18],Dose-Dependent Effect
same,Activity,K562 [19],12.56%
same,Activity,THP-1 [20],Active
same,Activity,U-937 [21],15.33%
same,Activity,U-937 [22],Active
same,Activity,K562 [23],3.32%
same,IC50,SU-DHL-2,8.68 µM
same,Activity,THP-1 [24],Active
same,IC50,K562 [25],1.78 µM
same,viability at 2.5 µM,HL-60 [26],73%
same,Activity,KG-1 [27],Active
same,Activity,THP-1 [28],Active
same,Activity,NB-4 [29],Active
same,Activity,U-937 [30],13.42%
same,Activity,U-937 [31],Active
same,IC50,HL-60 [32],3.95 µM
same,Activity,THP-1 [33],Active
same,Activity,KG-1 [34],Active
same,IC50,THP-1 [35],2.84 µM
same,viability at 2.5 µM,K562 [36],77.5%
same,Activity,U-937 [37],Active
